# Source: ChEMBL document CHEMBL3826908, “Bortezomib inhibits bacterial and fungal β-carbonic anhydrases” (Bioorg Med Chem, 2016)
# How the values were obtained:
# [1] = Inhibition of Candida albicans beta-carbonic anhydrase preincubated for 15 mins by stopped-flow CO2 hydration assay
# [2] = Inhibition of Candida glabrata beta-carbonic anhydrase preincubated for 15 mins by stopped-flow CO2 hydration assay; set-up: species or system Nakaseomyces glabratus
# [3] = Inhibition of Cryptococcus neoformans beta-carbonic anhydrase preincubated for 15 mins by stopped-flow CO2 hydration assay
# [4] = Inhibition of Malassezia globosa beta-carbonic anhydrase preincubated for 15 mins by stopped-flow CO2 hydration assay
# [5] = Inhibition of Mycobacterium tuberculosis beta-carbonic anhydrase Rv3273 preincubated for 15 mins by stopped-flow CO2 hydration assay
# [6] = target: T1, Beta-carbonic anhydrase 1 (Mycobacterium tuberculosis, UniProt P9WPJ7); assay: Inhibition of Mycobacterium tuberculosis beta-carbonic anhydrase Rv1284 preincubated for 15 mins by stopped-flow CO2 hydration assay
# T1 sequence (P9WPJ7 whole entry): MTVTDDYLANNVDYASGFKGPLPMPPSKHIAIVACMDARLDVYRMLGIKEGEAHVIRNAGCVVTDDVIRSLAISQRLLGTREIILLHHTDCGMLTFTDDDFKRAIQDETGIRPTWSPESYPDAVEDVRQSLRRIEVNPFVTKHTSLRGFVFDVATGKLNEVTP
# [7] = Inhibition of Mycobacterium tuberculosis beta-carbonic anhydrase Rv3588 preincubated for 15 mins by stopped-flow CO2 hydration assay
# [8] = Inhibition of Drosophila melanogaster beta-carbonic anhydrase preincubated for 15 mins by stopped-flow CO2 hydration assay
# [9] = Inhibition of Flaveria bidentis beta-carbonic anhydrase preincubated for 15 mins by stopped-flow CO2 hydration assay
# Carbonic anhydrase 1 = Carbonic anhydrase 1 (Homo sapiens, UniProt P00915)
# Description: Inhibition of human carbonic anhydrase-1 preincubated for 15 mins by stopped-flow CO2 hydration assay
# Carbonic anhydrase 2 = Carbonic anhydrase 2 (Homo sapiens, UniProt P00918)
# Description: Inhibition of human carbonic anhydrase-2 preincubated for 15 mins by stopped-flow CO2 hydration assay
# Carbonic anhydrase 1, sequence (P00915 whole entry): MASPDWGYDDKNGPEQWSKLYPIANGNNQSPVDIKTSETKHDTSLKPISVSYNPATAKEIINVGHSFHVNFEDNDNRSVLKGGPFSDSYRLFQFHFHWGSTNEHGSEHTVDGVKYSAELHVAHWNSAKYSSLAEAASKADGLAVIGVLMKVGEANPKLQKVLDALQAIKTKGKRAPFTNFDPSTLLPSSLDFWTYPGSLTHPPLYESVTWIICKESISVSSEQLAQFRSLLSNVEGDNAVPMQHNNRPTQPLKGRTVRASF
Compound,Ki [1] [µM],Ki [2] [µM],Ki [3] [µM],Ki [4] [µM],Ki [5] [µM],Ki [6] [µM],Ki [7] [µM],Ki [8] [µM],Ki [9] [µM],Ki (Carbonic anhydrase 1) [µM],Ki (Carbonic anhydrase 2) [µM]
CC(C)C[C@H](NC(=O)[C@H](Cc1ccccc1)NC(=O)c1cnccn1)B(O)O [BORTEZOMIB],1.12,5.73,4.7,3.24,6.5,7.3,4.2,11.3,8.45,1.29,1.16
OB(O)c1ccccc1 [PHENYLBORONIC ACID],> 100,100,> 100,89,67,58,48,> 100,8,> 100,> 100
CC(=O)Nc1nnc(S(N)(=O)=O)s1 [ACETAZOLAMIDE],–,0.011,0.01,74,–,–,0.01,0.049,[…],–,–
